From US20110021565A1, “PIPERIDINE DERIVATIVES AS NK3 ANTAGONISTS” (priority 2007, published 2011)

Target: T1, recombinant human NK3 receptor (Homo sapiens, UniProt P29371)
T1 construct: expressed in transfected cells; host or cells: HEK293 cells, transient expression; membrane preparation
T1 sequence (P29371 1-465): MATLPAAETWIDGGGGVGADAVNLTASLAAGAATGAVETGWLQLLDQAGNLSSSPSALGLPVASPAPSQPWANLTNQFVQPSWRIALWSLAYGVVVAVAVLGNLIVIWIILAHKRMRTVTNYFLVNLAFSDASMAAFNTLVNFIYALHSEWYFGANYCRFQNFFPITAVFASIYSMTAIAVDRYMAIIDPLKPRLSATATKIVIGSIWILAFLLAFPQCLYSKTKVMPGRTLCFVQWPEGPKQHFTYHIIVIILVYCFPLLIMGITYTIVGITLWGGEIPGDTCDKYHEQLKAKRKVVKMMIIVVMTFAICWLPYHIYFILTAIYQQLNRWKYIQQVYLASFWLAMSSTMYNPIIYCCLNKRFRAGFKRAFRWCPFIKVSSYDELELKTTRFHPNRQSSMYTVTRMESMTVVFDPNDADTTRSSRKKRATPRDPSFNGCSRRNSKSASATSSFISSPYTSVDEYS
Assay: [3H]SR142801 competition binding assay
Conditions: [3H]SR142801, membranes of HEK293 cells transiently expressing recombinant human NK3 receptor; read-out: hNK3 Ki
Experimental: [^3H]SR142801 Competition Binding Assay
hNK3 receptor binding experiment were performed using [^3H]SR142801 (Catalog No. TRK1035, specific activity: 74.0 Ci/mmol, Amersham, GE Healthcare UK limited, Buckinghamshire, UK) and membrane isolated from HEK293 cells transiently expressing recombinant human NK3 receptor. After thawing, the membrane homogenates were centrifuged at 48,000×g for 10 min at 4° C., the pellets were resuspended in the 50 mM Tris-HCl, 4 mM MnCl2, 1 μM phosphoramidon, 0.1% BSA binding buffer at pH 7.4 to a final assay concentration of 5 μg protein/well. For inhibition experiments, membranes were incubated with [^3H]SR142801 at a concentration equal to KD value of radioligand and 10 concentrations of the inhibitory compound (0.0003-10 μM) (in a total reaction volume of 500 μl) for 75 min at room temperature (RT). At the end of the incubation, membranes were filtered onto unitfilter (96-well white microplate with bonded GF/C filter preincubated 1 h in 0.3% PEI+0.3% BSA, Packard BioScience, Meriden, Conn.) with a Filtermate 196 harvester (Packard BioScience) and washed 4 times with ice-cold 50 mM Tris-HCl, pH 7.4 buffer. Nonspecific binding was measured in the presence of 10 μM SB222200 for both radioligands. The radioactivity on the filter was counted (5 min) on a Packard Top-count microplate scintillation counter with quenching correction after addition of 45 μl of microscint 40 (Canberra Packard S. A., Zurich, Switzerland) and shaking for 1 h. Inhibition curves were fitted according to the Hill equation: y=100/(1+(x/IC50)^nH), where nH=slope factor using Excel-fit 4 software ([…]). IC50 values were derived from the inhibition curve and the affinity constant (IQ values were calculated using the Cheng-Prussoff equation Ki=IC50/(1+[L]/KD) where [L] is the concentration of radioligand and KD is its dissociation constant at the receptor, derived from the saturation isotherm. All experiments were performed in duplicate and the mean±standard error (SEM) of the individual Ki values was calculated.

SMILES | Ki [nM]
CCN(C(C)=O)C1CCN(CCC(C)(C(=O)N[C@@H](CO)c2ccc(F)cc2)c2ccc(Cl)c(Cl)c2)CC1 (single isomer, unassigned; epimer 2) [Example 167] | 34.9
COCCN(C(C)=O)C1CCN(CCC(C)(C(=O)N[C@@H](CO)c2ccc(Cl)cc2)c2ccc(Cl)c(Cl)c2)CC1 (stereo in doubt) [Example 147, 4-{4-[Acetyl-(2-methoxy-ethyl)-amino]-piperidin-1-yl}-N-[1-(4-chloro-phenyl)-2-hydroxy-ethyl]-2-(3,4-dichloro-phenyl)-2-methyl-butyramide] | 382
COc1ccc(CN(C)C(=O)C(C)(CCN2CCC(NS(C)(=O)=O)CC2)c2ccc(Cl)c(Cl)c2)cc1F (stereo not drawn) [Example 1, 2-(3,4-Dichloro-phenyl)-N-(3-fluoro-4-methoxy-benzyl)-4-(4-methanesulfonylamino-piperidin-1-yl)-2,N-dimethyl-butyramide] | 187
CC(CCN1CCC(NS(C)(=O)=O)CC1)(C(=O)NCc1cc(C(F)(F)F)cc(C(F)(F)F)c1)c1ccc(Cl)c(Cl)c1 (stereo not drawn) [Example 4, N-(3,5-Bis-trifluoromethyl-benzyl)-2-(3,4-dichloro-phenyl)-4-(4-methanesulfonyl-amino-piperidin-1-yl)-2-methyl-butyramide] | 140
COc1cc(CN(C)C(=O)C(C)(CCN2CCC(NS(C)(=O)=O)CC2)c2ccc(Cl)c(Cl)c2)ccc1OC(F)F (stereo not drawn) [Example 5, 2-(3,4-Dichloro-phenyl)-N-(4-difluoromethoxy-3-methoxy-benzyl)-4-(4-methanesulfonyl-amino-piperidin-1-yl)-2,N-dimethyl-butyramide] | 272
CN(C)c1ccc(CNC(=O)C(C)(CCN2CCC(NS(C)(=O)=O)CC2)c2ccc(Cl)c(Cl)c2)cc1 (stereo not drawn) [Example 7, 2-(3,4-Dichloro-phenyl)-N-(4-dimethylamino-benzyl)-4-(4-methanesulfonyl-amino-piperidin-1-yl)-2-methyl-butyramide] | 621
CN(Cc1ccc(Cl)c(C(F)(F)F)c1)C(=O)C(C)(CCN1CCC(NS(C)(=O)=O)CC1)c1ccc(Cl)c(Cl)c1 (stereo not drawn) [Example 8, N-(4-Chloro-3-trifluoromethyl-benzyl)-2-(3,4-dichloro-phenyl)-4-(4-methanesulfonyl-amino-piperidin-1-yl)-2,N-dimethyl-butyramide] | 22.6
CC(CCN1CCC(NS(C)(=O)=O)CC1)(C(=O)NCc1cccc(OC(F)F)c1)c1ccc(Cl)c(Cl)c1 (stereo not drawn) [Example 12, 2-(3,4-Dichloro-phenyl)-N-(3-difluoromethoxy-benzyl)-4-(4-methanesulfonyl-amino-piperidin-1-yl)-2-methyl-butyramide] | 309
CC(CCN1CCC(NS(C)(=O)=O)CC1)(C(=O)NCc1ccc(C(F)(F)F)cc1)c1ccc(Cl)c(Cl)c1 (stereo not drawn) [Example 14, 2-(3,4-Dichloro-phenyl)-4-(4-methanesulfonyl-amino-piperidin-1-yl)-2-methyl-N-(4-trifluoromethyl-benzyl)-butyramide] | 58
COc1cccc(CN(C)C(=O)C(C)(CCN2CCC(NS(C)(=O)=O)CC2)c2ccc(Cl)c(Cl)c2)c1 (stereo not drawn) [Example 17, 2-(3,4-Dichloro-phenyl)-4-(4-methanesulfonyl-amino-piperidin-1-yl)-N-(3-methoxy-benzyl)-2,N-dimethyl-butyramide] | 213
CN(Cc1ccc(-c2ccncc2)cc1)C(=O)C(C)(CCN1CCC(NS(C)(=O)=O)CC1)c1ccc(Cl)c(Cl)c1 (stereo not drawn) [Example 20, 2-(3,4-Dichloro-phenyl)-4-(4-methanesulfonyl-amino-piperidin-1-yl)-2,N-dimethyl-N-(4-pyridin-4-yl-benzyl)-butyramide] | 203
CC(CCN1CCC(NS(C)(=O)=O)CC1)(C(=O)NCc1cccc(OC(F)(F)F)c1)c1ccc(Cl)c(Cl)c1 (stereo not drawn) [Example 21, 2-(3,4-Dichloro-phenyl)-4-(4-methanesulfonyl-amino-piperidin-1-yl)-2-methyl-N-(3-trifluoromethoxy-benzyl)-butyramide] | 147

More lines, now with the values ahead:

Ki [nM] | SMILES
703 | COc1ccc(C(NC(=O)C(C)(CCN2CCC(NS(C)(=O)=O)CC2)c2ccc(Cl)c(Cl)c2)C2CC2)cc1 (stereo not drawn) [Example 2, N-[Cyclopropyl-(4-methoxy-phenyl)-methyl]-2-(3,4-dichloro-phenyl)-4-(4-methanesulfonyl-amino-piperidin-1-yl)-2-methyl-butyramide]
23.2 | CN(Cc1ccc(F)c(C(F)(F)F)c1)C(=O)C(C)(CCN1CCC(NS(C)(=O)=O)CC1)c1ccc(Cl)c(Cl)c1 (stereo not drawn) [Example 3, 2-(3,4-Dichloro-phenyl)-N-(4-fluoro-3-trifluoromethyl-benzyl)-4-(4-methanesulfonyl-amino-piperidin-1-yl)-2,N-dimethyl-butyramide]
77.4 | Cc1ccc(CN(C)C(=O)C(C)(CCN2CCC(NS(C)(=O)=O)CC2)c2ccc(Cl)c(Cl)c2)cc1 (stereo not drawn) [Example 6, 2-(3,4-Dichloro-phenyl)-4-(4-methanesulfonyl-amino-piperidin-1-yl)-2,N-dimethyl-N-(4-methyl-benzyl)-butyramide]
30 | CN(Cc1ccc(C(F)(F)F)c(F)c1)C(=O)C(C)(CCN1CCC(NS(C)(=O)=O)CC1)c1ccc(Cl)c(Cl)c1 (stereo not drawn) [Example 9, 2-(3,4-Dichloro-phenyl)-N-(3-fluoro-4-trifluoromethyl-benzyl)-4-(4-methanesulfonyl-amino-piperidin-1-yl)-2,N-dimethyl-butyramide]
24 | CN(Cc1ccc(Cl)c(Cl)c1)C(=O)C(C)(CCN1CCC(NS(C)(=O)=O)CC1)c1ccc(Cl)c(Cl)c1 (stereo not drawn) [Example 10, N-(3,4-Dichloro-benzyl)-2-(3,4-dichloro-phenyl)-4-(4-methanesulfonyl-amino-piperidin-1-yl)-2,N-dimethyl-butyramide]
44.2 | CC(CCN1CCC(NS(C)(=O)=O)CC1)(C(=O)NCc1ccc(Cl)c(Cl)c1)c1ccc(Cl)c(Cl)c1 (stereo not drawn) [Example 11, N-(3,4-Dichloro-benzyl)-2-(3,4-dichloro-phenyl)-4-(4-methanesulfonyl-amino-piperidin-1-yl)-2-methyl-butyramide]
580 | CC(CCN1CCC(NS(C)(=O)=O)CC1)(C(=O)NCc1cc(F)ccc1C(F)(F)F)c1ccc(Cl)c(Cl)c1 (stereo not drawn) [Example 13, 2-(3,4-Dichloro-phenyl)-N-(5-fluoro-2-trifluoromethyl-benzyl)-4-(4-methanesulfonyl-amino-piperidin-1-yl)-2-methyl-butyramide]
166 | CC(CCN1CCC(NS(C)(=O)=O)CC1)(C(=O)NCc1cc(C(F)(F)F)ccc1F)c1ccc(Cl)c(Cl)c1 (stereo not drawn) [Example 15, 2-(3,4-Dichloro-phenyl)-N-(2-fluoro-5-trifluoromethyl-benzyl)-4-(4-methanesulfonyl-amino-piperidin-1-yl)-2-methyl-butyramide]
173 | CC(NC(=O)C(C)(CCN1CCC(NS(C)(=O)=O)CC1)c1ccc(Cl)c(Cl)c1)c1ccc(Cl)cc1 (stereo not drawn) [Example 16, N-[1-(4-Chloro-phenyl)-ethyl]-2-(3,4-dichloro-phenyl)-4-(4-methanesulfonyl-amino-piperidin-1-yl)-2-methyl-butyramide]
33.3 | CN(Cc1ccccc1Cl)C(=O)C(C)(CCN1CCC(NS(C)(=O)=O)CC1)c1ccc(Cl)c(Cl)c1 (stereo not drawn) [Example 18, N-(2-Chloro-benzyl)-2-(3,4-dichloro-phenyl)-4-(4-methanesulfonyl-amino-piperidin-1-yl)-2,N-dimethyl-butyramide]
59.9 | CC(NC(=O)C(C)(CCN1CCC(NS(C)(=O)=O)CC1)c1ccc(Cl)c(Cl)c1)c1ccc(Cl)c(Cl)c1 (stereo not drawn) [Example 19, 2-(3,4-Dichloro-phenyl)-N-[1-(3,4-dichloro-phenyl)-ethyl]-4-(4-methanesulfonyl-amino-piperidin-1-yl)-2-methyl-butyramide]
70.8 | CC(CCN1CCC(NS(C)(=O)=O)CC1)(C(=O)NCc1ccc(Cl)c(F)c1)c1ccc(Cl)c(Cl)c1 (stereo not drawn) [Example 22, N-(4-Chloro-3-fluoro-benzyl)-2-(3,4-dichloro-phenyl)-4-(4-methanesulfonyl-amino-piperidin-1-yl)-2-methyl-butyramide]
